Data on 2 compounds can be found in patent US9371289B2, “Phenoxyethyl dihydro-1H-isoquinoline compounds” (Eli Lilly and Company, priority 2013, dated 2016).

One may read the Ki as the equilibrium dissociation constant of an inhibitor or competing ligand from its target. Usually IC50 stands for the point on the concentration scale where inhibition reaches its midpoint.

Counter-ions that a name gives are not always drawn. Bounds are passed on as bounds.

For one experiment, the target named is T1, human EP1 (Homo sapiens, UniProt P34995).
T1 construct: expressed in transfected cells
T1 sequence (P34995 1-402): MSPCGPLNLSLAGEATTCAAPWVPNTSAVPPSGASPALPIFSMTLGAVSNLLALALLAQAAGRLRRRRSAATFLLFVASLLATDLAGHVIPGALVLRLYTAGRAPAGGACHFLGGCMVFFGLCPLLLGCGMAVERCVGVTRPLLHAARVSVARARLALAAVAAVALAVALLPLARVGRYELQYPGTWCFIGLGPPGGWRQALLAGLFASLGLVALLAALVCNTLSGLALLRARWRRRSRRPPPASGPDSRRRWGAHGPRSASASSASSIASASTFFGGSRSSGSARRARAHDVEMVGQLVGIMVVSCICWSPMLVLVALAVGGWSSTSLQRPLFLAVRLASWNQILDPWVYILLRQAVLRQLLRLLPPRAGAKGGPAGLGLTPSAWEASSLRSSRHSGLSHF
As to the kind of experiment: In vitro binding to human EP1 ([3H]-PGE2 displacement, HEK293 membranes). The note with it: [3H]-PGE2 binding, hEP1 membranes from recombinant HEK293 cells. How it is done: (§1) hEP1 and hEP4 membranes are prepared from recombinant HEK293 cells stably expressing the human EP1 (Genbank accession number AY275470) or EP4 (Genbank accession number AY429109) receptors. hEP2 and hEP3 membranes are prepared from HEK293 cells transiently transfected with EP2 (Genbank accession number AY275471) or EP3 (isoform VI: Genbank accession number AY429108) receptor plasmids. Frozen cell pellets are homogenized in homogenization buffer using a Teflon/glass homogenizer. Membrane protein is aliquoted and quick frozen on dry ice prior to storage at −80° C. […]
(§2) Kd values for [3H]-PGE2 binding to each receptor are determined by saturation binding studies or homologous competition. […] Nonspecific binding is calculated by comparing binding in the presence and absence of 2 μM of PGE2. The membranes are harvested by filtration (TomTek harvester), washed 4 times with cold buffer (10 mM MES pH 6.0 with KOH, 10 mM MgCl2), dried in a 60° C. oven, and the radioactivity is quantified as counts per minute (CPM) using a TopCount® detector. Percent specific binding is calculated as the percent of the binding in the absence of any inhibitor, corrected for non-specific binding in the presence of 2 μM of PGE2. […]

In the next experiment the target is T2, human EP2 (Homo sapiens, UniProt P43116).
T2 construct: expressed in transfected cells; host or cells: HEK293 (transient), membranes
T2 sequence (P43116 whole entry): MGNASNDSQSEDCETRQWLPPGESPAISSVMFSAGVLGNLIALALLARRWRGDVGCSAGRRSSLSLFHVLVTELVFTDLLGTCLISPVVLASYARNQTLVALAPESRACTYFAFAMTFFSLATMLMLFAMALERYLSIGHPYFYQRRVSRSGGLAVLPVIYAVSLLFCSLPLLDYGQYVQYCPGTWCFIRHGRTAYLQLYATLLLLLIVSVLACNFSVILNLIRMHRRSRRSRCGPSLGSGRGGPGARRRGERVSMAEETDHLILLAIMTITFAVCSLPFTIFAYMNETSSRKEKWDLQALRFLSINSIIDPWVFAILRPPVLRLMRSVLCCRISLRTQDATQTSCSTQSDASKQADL
As to the kind of experiment: In vitro binding to human EP2 ([3H]-PGE2 displacement, HEK293 membranes). The settings on record: [3H]-PGE2 binding, hEP2 membranes from transiently transfected HEK293 cells. How it is done:
as §1, §2

For the next experiment, the target named is T3, human EP3 (Homo sapiens, UniProt P43115).
T3 construct: expressed in transfected cells; host or cells: HEK293 (transient), membranes
T3 sequence (P43115 1-374 isoform P43115-4): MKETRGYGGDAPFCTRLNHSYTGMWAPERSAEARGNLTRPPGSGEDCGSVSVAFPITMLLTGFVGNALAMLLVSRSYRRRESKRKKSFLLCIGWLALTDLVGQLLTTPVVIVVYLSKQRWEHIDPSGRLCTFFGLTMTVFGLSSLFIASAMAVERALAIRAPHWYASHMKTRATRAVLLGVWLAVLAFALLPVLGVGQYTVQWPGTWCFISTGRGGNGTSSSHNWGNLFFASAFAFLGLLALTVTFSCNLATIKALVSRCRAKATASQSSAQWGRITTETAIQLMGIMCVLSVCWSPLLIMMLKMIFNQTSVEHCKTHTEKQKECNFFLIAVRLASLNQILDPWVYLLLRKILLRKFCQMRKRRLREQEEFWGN
As to the kind of experiment: In vitro binding to human EP3 ([3H]-PGE2 displacement, HEK293 membranes). The settings on record: [3H]-PGE2 binding, hEP3 (isoform VI) membranes from transiently transfected HEK293 cells. The protocol: as §1, §2

Another experiment concerns the target T4, rat EP4 (Rattus norvegicus, UniProt P43114).
T4 construct: expressed in transfected cells
Nature of the experiment: In vitro rat EP4 functional antagonist activity (cAMP HTRF). The format is cell-based. The settings on record: HEK293 cells expressing rat EP4; PGE2 at EC80; n=1; read-out: IC50 measured at rat EP4 (cAMP). The protocol: Rat EP4 cDNA (Genebank Accession# NM_03276) is cloned into pcDNA 3.1 vector and subsequently transfected in HEK293 cells for receptor expression. Rat EP4 stable clone is scaled up and then frozen down as cell bank for future compounds screening. To test EP4 antagonist compounds in rEP4 cells, thaw the frozen cells and then resuspend cells in cAMP assay buffer. The cAMP buffer is made by HBSS without Phenol Red (Hyclone, SH30268) supplemented with 20 mM HEPES (Hyclone, SH30237), 0.1% BSA (Gibco, 15260) and 125 μM IBMX (Sigma, 15879) (see e.g., Murase, A., et al., Life Sciences, 82:226-232 (2008)). The cells are plated into 96-well half area flat-bottom polystyrene black plates (Costar 3694). Compounds are serial diluted with DMSO to give 10-point concentration response curves. Then diluted compounds are added into cAMP assay buffer which contains PGE2 (Cayman 14010, in a concentration predetermined to produce an EC80) at ratio of DMSO/buffer at 1/100. The cells are treated with compounds in the presence of PGE2 (EC80 concentration) for 30 minutes at room temperature. The cAMP levels generated from the cells are quantified by a cAMP HTRF assay kit (Cisbio 62AM4PEC). The plates are read on an EnVision plate reader using HTRF optimized protocol (PerkinElmer). IC50s are calculated using Graphpad Prism (v. 4) nonlinear regression, sigmoidal dose response curve fitting.
(In TR-FRET formats the signal depends on donor and acceptor labels being close together.)

For experiment [1], the target named is T5, human EP4 (Homo sapiens, UniProt P35408). As to the kind of experiment: In vitro binding to human EP4 ([3H]-PGE2 displacement, HEK293 membranes). On the set-up: expressed in transfected cells. The settings on record: [3H]-PGE2 binding, hEP4 membranes from recombinant HEK293 cells. The protocol:
as §1, §2

For experiment [2], the target named is T5, human EP4. Nature of the experiment: In vitro human EP4 functional antagonist activity (inhibition of PGE2-stimulated cAMP production, HTRF). The note with it: HEK293 cells stably expressing human EP4; PGE2 at EC80 (0.188 nM); read-out: IC50 measured at human EP4 (inhibition of PGE2-stimulated cAMP production). The experiment is classed as cell-based. On the set-up: expressed in transfected cells. How it is done:
Assays are conducted in recombinant HEK293 cells stably expressing human EP4 receptor. The cell lines are maintained by culturing in DMEM with high glucose and pyridoxine hydrochloride (Invitrogen) supplemented with 10% fetal bovine serum (FBS), 1 mM sodium pyruvate, 10 mM HEPES, 500 μg/mL geneticin and 2 mM L-glutamine. Confluent cultures are grown at 37° C. in an atmosphere containing 5% CO2. Cells are harvested using 0.25% Trypsin-EDTA, suspended in freeze media (FBS with 6% DMSO) at 10^7 cells/mL and aliquots are stored in liquid nitrogen. Just before assay, cells are thawed in DMEM, centrifuged, and resuspended in cAMP buffer.
The inhibition of PGE2-stimulated cAMP production by EP4 antagonists is measured using HTRF (Cisbio catalogue #62AM4PEB). An aliquot equivalent to 4000 cells is incubated with 50 μL cAMP assay buffer containing PGE2 in a concentration predetermined to produce an EC80 (0.188 nM PGE2 from Sigma, catalog # P5640-10 mg) and EP4 antagonists at room temperature for 20 minutes. cAMP assay buffer contains 500 mL HBSS, 0.1% BSA, 20 mM HEPES and 200 μM IBMX (Sigma I5879). […] The HTRF signal is detected using an EnVision plate reader (Perkin-Elmer) to calculate the ratio of fluorescence at 665 nm to that at 620 nm. […]
On the technique in general: Changes in cAMP serve as a functional read-out for many G protein-coupled receptors.

For experiment [3], the target named is T5, human EP4. Nature of the experiment: In vitro antagonist activity in human whole blood (reversal of PGE2 inhibition of LPS-induced TNFα production). The experiment is classed as cell-based. On the set-up: Blood is collected from normal volunteer donors; from tissue; host or cells: human whole blood from volunteer donors. The note with it: LPS 10 μg/mL with 10 nM PGE2, geometric mean ± standard deviation, read-out: IC50 in human blood TNFα induction assay. An excerpt:
The inhibitory effects of PGE2 on LPS-induced TNFα production from macrophages/monocytes are believed to be mediated by EP4 receptors (See Murase, A., et al., Life Sciences, 82:226-232 (2008)). The ability of the compound of Example 1 to reverse the inhibitory effect of PGE2 on LPS-induced TNFα production in human whole blood is an indicia of functional activity.
Blood is collected from normal volunteer donors into sodium heparin vacutainer tubes. Donors have not taken NSAIDs or celecoxib within 48 hours or glucocorticoids within two weeks prior to the donation. All tubes/donor are pooled into 50 mL Falcon conical centrifuge tubes and 98 μL/well is distributed into 96-well tissue culture plates (Falcon 3072). […] TNFα levels in 2 μL plasma are quantified by a commercially available enzyme immunoassay (R&D Systems DY210), using Immulon 4 HBX plates (Thermo 3855) and 3,3′,5,5′ tetramethylbiphenyl-4,4′-diamine substrate (KPL 50-76-03). The plates are read at A450-A650 on a plate reader (Molecular Devices Versamax) using SOFTmaxPRO (v. 4.3.1) software. IC50s are calculated using Graphpad Prism (v. 4) nonlinear regression, with sigmoidal dose response curve fitting. Results are expressed as the geometric mean±standard deviation; n=number of independent determinations.

T5 sequence (P35408 whole entry): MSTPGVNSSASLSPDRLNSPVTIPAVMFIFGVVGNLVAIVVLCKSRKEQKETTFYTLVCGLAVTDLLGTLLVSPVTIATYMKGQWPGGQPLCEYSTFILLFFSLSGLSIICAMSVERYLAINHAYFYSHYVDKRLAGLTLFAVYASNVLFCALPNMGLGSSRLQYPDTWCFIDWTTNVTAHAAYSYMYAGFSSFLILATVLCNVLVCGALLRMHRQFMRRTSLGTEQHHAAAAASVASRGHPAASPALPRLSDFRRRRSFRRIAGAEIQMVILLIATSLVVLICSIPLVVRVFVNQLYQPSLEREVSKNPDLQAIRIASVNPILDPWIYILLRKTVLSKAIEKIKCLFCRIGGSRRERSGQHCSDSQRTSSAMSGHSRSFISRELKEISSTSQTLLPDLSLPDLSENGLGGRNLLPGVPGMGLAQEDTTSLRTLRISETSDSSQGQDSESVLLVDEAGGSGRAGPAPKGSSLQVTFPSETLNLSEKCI
T4 sequence (P43114 whole entry): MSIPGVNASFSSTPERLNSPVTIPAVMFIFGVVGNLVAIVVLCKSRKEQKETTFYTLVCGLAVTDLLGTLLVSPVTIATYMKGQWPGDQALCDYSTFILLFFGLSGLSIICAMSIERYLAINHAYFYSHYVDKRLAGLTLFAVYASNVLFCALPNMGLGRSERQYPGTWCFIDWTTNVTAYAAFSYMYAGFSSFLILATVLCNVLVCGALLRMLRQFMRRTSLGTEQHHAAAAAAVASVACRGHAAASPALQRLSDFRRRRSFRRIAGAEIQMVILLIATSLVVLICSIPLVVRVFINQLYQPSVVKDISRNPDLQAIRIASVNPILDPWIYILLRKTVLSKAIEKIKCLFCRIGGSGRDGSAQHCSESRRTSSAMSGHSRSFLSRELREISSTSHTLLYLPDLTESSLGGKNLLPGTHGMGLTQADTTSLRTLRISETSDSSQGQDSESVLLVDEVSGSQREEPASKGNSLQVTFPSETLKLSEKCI

Take `C[C@H](NC(=O)[C@H]1Cc2ccccc2CN1CCOc1ccccc1)c1ccc(C(=O)O)cc1` [Example 1, 4-[(1S)-1-[[(3R)-2-(2-phenoxyethyl)-3,4-dihydro-1H-isoquinoline-3-carbonyl]amino]ethyl]benzoic acid]: the inhibition constant Ki was 7920 ± 5810 nM on human EP1, 1320 ± 1780 nM on human EP2, greater than 14800 nM at human EP3 and 0.403 ± 0.247 nM on human EP4 [1]. Besides, the results for the concentration for half-maximal inhibition (IC50) at rat EP4, at human EP4 [2] and at human EP4 [3] were 2 nM, 0.752 ± 0.538 nM and 39 ± 21 nM, respectively.
On to `C[C@H](NC(=O)[C@H]1Cc2ccccc2CN1CCOc1ccc(F)cc1)c1ccc(C(=O)O)cc1` [Example 2, 4-[(1S)-1-[[(3R)-2-(2-(4-fluorophenoxy)ethyl)-3,4-dihydro-1H-isoquinoline-3-carbonyl]amino]ethyl]benzoic acid hydrochloride], for which the Ki is 4650 nM at human EP1, 331 ± 72 nM at human EP2, greater than 14600 nM at human EP3 and 0.38 ± 0.142 nM at human EP4 [1]. Also, the IC50 on rat EP4 turned out to be 6.7 nM; on human EP4 [2], 0.45 ± 0.256 nM; at human EP4 [3], 61 ± 55 nM.
